Experimental data as given in a melting point compilation (Tetko et al.; mined from patent text by program, amines drawn as free bases though some values may be those of a salt).

Q: With `CCCN(CCC)c1c([N+](=O)[O-])cc(C2OCCS2)cc1[N+](=O)[O-]` (configuration not stated) as the molecule, how does the melting point read?
A: The melting point was 111 to 112 °C.

Q: For `CC1(C)CCC(C)(C)c2cc(C(=O)CSc3ccc(C(=O)O)cc3)ccc21`, which melting point is on record?
A: The melting point was 175 to 179 °C.

Q: For `CC(C)c1c(CCC=O)c2c(c(C(C)C)c1OCc1ccccc1)CC(C)(C)O2`, which melting point is on record?
A: Its melting point is 120 to 122 °C.

Q: With `Cn1cc(-c2cccc(C(F)(F)F)c2)c(=O)n1-c1cccc(Cl)c1` as the molecule, how does the melting point read?
A: The melting point was 130 to 131 °C.

Q: Which melting point does the source give for `COc1ccc(C(=O)C2CCCCC2)c(Cl)c1Cl` here?
A: Its melting point is 97 to 98 °C.

Q: Which melting point does the source give for `CCCCN1CC2CN(S(=O)(=O)c3ccc(NC(C)=O)cc3)CC(C1)C2(C)C` here?
A: Its melting point is 130 °C.

Q: Which melting point does the source give for `CCCCc1oc2ccccc2c1C(=O)NCc1ccc2c(Br)c(OC(Cc3ccccc3)C(=O)O)ccc2c1` (configuration not stated) here?
A: The melting point was 125 to 130 °C.

Q: For `O=C1CCCc2ccc(O)cc21`, which melting point is on record?
A: The melting point was 170 to 173 °C.

Q: For `CCCc1c(OCCCCCOc2ccc3ccc(OCC(=O)OCC)cc3c2CCC(=O)OCC)ccc2c1OCCC2=O`, which melting point is on record?
A: Its melting point is 68 to 69.5 °C.

Q: For `Cc1nc2c(O[C@H]3c4ccccc4C[C@@H]3O)cccn2c1CO`, which melting point is on record?
A: The melting point was 174 to 175 °C.

Q: Which melting point does the source give for `Cc1ccnc(C(=O)c2[nH]c3cc(Cl)ccc3c2NC(=O)CCl)c1` here?
A: The melting point was 224 to 225 °C.

Q: For `CCc1[nH]n(C2CCCC2)c2nc(SC)nc(=O)c1-2`, which melting point is on record?
A: Its melting point is 200 to 202 °C.

Q: Which melting point does the source give for `O=C(O)COc1ccc(-c2c(Br)ccc3sc4ccccc4c23)cc1` here?
A: The melting point was 210 °C.

Q: Which melting point does the source give for `NCCCNc1ccc(Cl)nn1` here?
A: Its melting point is 125 °C.

Q: For `O=C(O)Cc1cccc(OCc2ccccc2Cl)c1OCc1ccccc1Cl`, which melting point is on record?
A: Its melting point is 102 to 104 °C.

Q: For `CC(C)(C)OC(=O)N[C@@H](Cc1ccccc1)[C@@H](O)[C@@H](O)C1CC1`, which melting point is on record?
A: The melting point was 83 to 85 °C.

Q: With `CCOC(=O)N1CCN(c2ccc(Br)cn2)CC1` as the molecule, how does the melting point read?
A: Its melting point is 68 °C.

Q: Which melting point does the source give for `O=C(O)CCCCn1ccnc1` here?
A: Its melting point is 157 to 158 °C.

Q: For `CCOCc1oc(-c2ccc(C(F)(F)F)cc2)cc1C(=O)OCC`, which melting point is on record?
A: Its melting point is 103 to 105 °C.

Q: Which melting point does the source give for `CCC1(CC)COP(=O)(Cc2ccc(N)cc2)OC1` here?
A: Its melting point is 128 to 129 °C.

Q: With `Cc1ccccc1-c1cc(=O)c2ccccc2o1` as the molecule, how does the melting point read?
A: Its melting point is 45.5 to 47.5 °C.

Q: For `N#Cc1cc2nc(O)c(O)nc2c2[nH]nnc12`, which melting point is on record?
A: Its melting point is over 300 °C.

Q: For `O=C(O)c1cccc(CNC2CC3CC2C2CCCC32)c1` (configuration not stated), which melting point is on record?
A: Its melting point is 258 to 261 °C.

Q: For `CCc1c[nH]c(-c2ccc3c(c2)N(C(C)CN2CCCC2)c2ccccc2S3)n1` (racemic), which melting point is on record?
A: Its melting point is 197 °C.

Q: For `O=c1c(Cc2cccnc2)nc2cccnc2n1-c1cccc(-c2ccc3ccccc3c2)c1`, which melting point is on record?
A: The melting point was 155 to 156 °C.

Q: For `CCc1nn(C(=O)NS(=O)(=O)c2ccccc2C(=O)OC)c(=O)n1C`, which melting point is on record?
A: The melting point was 131 °C.

Q: For `O=C1CN2Cc3ccc(OCCCC(=O)N(CCO)CCCCC4CCCCC4)cc3N=C2N1`, which melting point is on record?
A: Its melting point is 113 to 114 °C.

Q: For `O=C(Nc1cccc2ccccc12)OCc1ccc(CO)cc1`, which melting point is on record?
A: Its melting point is 158 to 159 °C.

Q: Which melting point does the source give for `O=[N+]([O-])c1ccc(CCN2CCN(c3nsc4ccccc34)CC2)cc1` here?
A: The melting point was 99 °C.

Q: For `COc1cc2cc3c(Nc4ccc(Sc5nccn5C)c(Cl)c4)c(C#N)cnc3cc2cc1OCCn1ccnn1`, which melting point is on record?
A: The melting point was 201 to 207 °C.

Q: For `CCN(CC)c1ccc2nc3c4ccccc4c(=Nc4cc(C)on4)cc-3oc2c1`, which melting point is on record?
A: Its melting point is 195 to 196 °C.

Q: For `O=c1c(O)c(-c2ccc(OCc3ccccc3)c(OCc3ccccc3)c2)oc2cc(OCc3ccccc3)ccc12`, which melting point is on record?
A: Its melting point is 120 to 121 °C.

Q: Which melting point does the source give for `CCOC(=O)c1cn(C)c2ccc(F)cc2c1=O` here?
A: Its melting point is 193 to 195 °C.

Q: For `CCCCCCCCCCC(O)C(O)CCC(O)C1CCC(=O)O1` (configuration not stated), which melting point is on record?
A: The melting point was 99 to 100 °C.

Q: For `CCC(=O)c1ccc2cc(OC(C)C)ccc2c1`, which melting point is on record?
A: The melting point was 79 to 80 °C.

Q: Which melting point does the source give for `Cc1cc2c(cc1C1=NNC(=O)CC1C)NC(=O)CO2` (configuration not stated) here?
A: Its melting point is 163 to 166 °C.

Q: With `CCN(CC)c1ccc(/C=C/c2cc(/C=C/c3ccc4cc[nH]c4c3)[nH]n2)c(OC)c1` as the molecule, how does the melting point read?
A: Its melting point is 104 to 108 °C.
